Results reported in PubChem BioAssay AID602165 (The Scripps Research Institute Molecular Screening Center, 2012).

Molecular target: Induced myeloid leukemia cell differentiation protein Mcl-1 (Homo sapiens) (UniProt Q07820)
Assay: MCL1 binding to BIM-BH3 peptide, inhibitors, late-stage follow-up, biochemical, fluorescence polarization, assay provider data, round 3 (AID 602165)
Conditions: GST-MCL1 / FITC-BIM-BH3 peptide fluorescence polarization

Chain of Induced myeloid leukemia cell differentiation protein Mcl-1 (Homo sapiens) (Q07820 whole entry, looked up): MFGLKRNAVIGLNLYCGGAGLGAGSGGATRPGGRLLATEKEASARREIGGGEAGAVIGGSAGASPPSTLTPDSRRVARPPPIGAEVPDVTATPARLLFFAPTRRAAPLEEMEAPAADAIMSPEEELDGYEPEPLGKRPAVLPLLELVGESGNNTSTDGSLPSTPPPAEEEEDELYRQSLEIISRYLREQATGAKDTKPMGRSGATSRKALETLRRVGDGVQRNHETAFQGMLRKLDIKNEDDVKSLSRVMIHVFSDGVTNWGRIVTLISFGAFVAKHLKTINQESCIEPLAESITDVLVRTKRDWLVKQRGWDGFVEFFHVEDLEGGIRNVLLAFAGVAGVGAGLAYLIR

Row | SMILES | IC50
1 | CCN1CCN(C(c2cccs2)c2ccc3cccnc3c2O)CC1 (stereo not drawn) | 1600 nM
2 | CN1CCN(C(c2ccc(F)cc2)c2ccc3cccnc3c2O)CC1 (stereo not drawn) | 600 nM
3 | OCCN1CCN(C(c2cccs2)c2ccc3cccnc3c2O)CC1 (stereo not drawn) | 3300 nM
4 | Oc1c(C(c2cccs2)N2CCCCC2)ccc2cccnc12 (stereo not drawn) | 2500 nM
5 | Oc1c(C(c2cccs2)N2CCN(c3ccccn3)CC2)ccc2cccnc12 (stereo not drawn) | 500 nM

Other lines, results leading:

Row | IC50 | SMILES
6 | 1300 nM | CC(C)Oc1ccc(C(Nc2ccccn2)c2ccc3cccnc3c2O)cc1 (stereo not drawn)
7 | 400 nM | Cc1ccnc(NC(c2cccs2)c2ccc3cccnc3c2O)c1 (stereo not drawn)
8 | 600 nM | Oc1c(C(Nc2ccccn2)c2cccs2)ccc2cccnc12 (stereo not drawn)
